Data set [1] concerns Mus musculus. The data set is described as follows: Toxicity in tumor cell implanted NCr nu/nu mouse assessed as body weight change at 4.39 umol/kg, ip administered from day 3 to 6 after implantation measured on day 7. Format: organism-based. The following applies: in vivo.
For data set [2], the system named is Mus musculus. Put plainly: Toxicity in tumor cell implanted NCr nu/nu mouse assessed as body weight change at 8.78 umol/kg, ip administered from day 3 to 6 after implantation measured on day 7. The following applies: in vivo. Format: organism-based.
For data set [3], the system named is Mus musculus. The data set is described as follows: Toxicity in tumor cell implanted NCr nu/nu mouse assessed as body weight change at 17.6 umol/kg, ip administered from day 3 to 6 after implantation measured on day 7. In kind it is organism-based. The following applies: in vivo.
The test system of data set [4] is Mus musculus. The data set is described as follows: Toxicity in tumor cell implanted NCr nu/nu mouse assessed as body weight change at 35.1 umol/kg, ip administered from day 3 to 6 after implantation measured on day 7. The following applies: in vivo. In kind it is organism-based.
In data set [5] the test system is Mus musculus. The data set is described as follows: Toxicity in NCr nu/nu mouse subcutaneously implanted with human KB cells assessed as mortality at 4.39 umol/kg, ip administered on day 10, 13, 16, 20 of implantation. Format: organism-based. Particulars: in vivo.
Data set [6] deals with Mus musculus. The data set is described as follows: Toxicity in NCr nu/nu mouse subcutaneously implanted with human KB cells assessed as mortality at 8.78 umol/kg, ip administered on day 10, 13, 16, 20 of implantation. Format: organism-based. The following applies: in vivo.
The subject of data set [7] is Mus musculus. Put plainly: Toxicity in NCr nu/nu mouse subcutaneously implanted with human KB cells assessed as mortality at 17.6 umol/kg, ip administered on day 10, 13, 16, 20 of implantation. Format: organism-based. The following applies: in vivo.
Data set [8] deals with Mus musculus. Put plainly: Toxicity in NCr nu/nu mouse subcutaneously implanted with human KB cells assessed as change in body weight at 4.39 umol/kg, ip administered on day 10, 13, 16, 20 of implantation. In kind it is organism-based. The following applies: in vivo.
Data set [9] deals with Mus musculus. Put plainly: Toxicity in NCr nu/nu mouse subcutaneously implanted with human KB cells assessed as change in body weight at 8.78 umol/kg, ip administered on day 10, 13, 16, 20 of implantation. Format: organism-based. Particulars: in vivo.
Data set [10] deals with Mus musculus. Put plainly: Toxicity in NCr nu/nu mouse subcutaneously implanted with human KB cells assessed as change in body weight at 17.6 umol/kg, ip administered on day 10, 13, 16, 20 of implantation. Format: organism-based. Particulars: in vivo.
For data set [11], the system named is Mus musculus. The data set is described as follows: Toxicity in NCr nu/nu mouse subcutaneously implanted with human KB cells assessed as change in body weight at 35.1 umol/kg, ip administered on day 10, 13, 16, 20 of implantation. Format: organism-based. Particulars: in vivo.
In data set [12] the test system is SW626. The data set is described as follows: Growth inhibition of human SW626 cells implanted intraperitoneally to NCr nu/nu mouse at 4.39 to 35.1 umol/kg, ip administered from day 3 to 6 after implantation measured on day 7 by MTT-based hollow-fiber test. In kind it is functional.
Data set [13] deals with KB. The data set is described as follows: Growth inhibition of human KB cells implanted subcutaneously to NCr nu/nu mouse at 4.39 to 35.1 umol/kg, ip administered from day 3 to 6 after implantation measured on day 7 by MTT-based hollow-fiber test. Format: functional.
Data set [14] is described as follows: Growth inhibition of human KBV1 cells implanted subcutaneously to NCr nu/nu mouse at 4.39 to 35.1 umol/kg, ip administered from day 3 to 6 after implantation measured on day 7 by MTT-based hollow-fiber test. Format: functional, KB-V1.
In data set [15] the test system is SW626. The data set is described as follows: Growth inhibition of human SW626 cells implanted subcutaneously to NCr nu/nu mouse at 4.39 to 35.1 umol/kg, ip administered from day 3 to 6 after implantation measured on day 7 by MTT-based hollow-fiber test. In kind it is functional.
In data set [16] the test system is KB. Put plainly: Growth inhibition of human KB cells implanted subcutaneously to NCr nu/nu mouse assessed as tumor size at 4.39 to 28.5 umol/kg, ip administered on day 10, 13, 16, 20 of implantation. Format: functional, organism-based.
Another data set deals with SK-MEL-2. Put plainly: Cytotoxicity against human SK-MEL-2 cells after 72 hrs by SRB assay. The following applies: SK-MEL-2, 72 h. Format: functional, cell-based.
For another data set, the system named is P388. The data set is described as follows: Cytotoxicity against mouse P388 cells after 72 hrs by SRB assay. Particulars: P388, 72 h. Format: functional, cell-based.
The next data set concerns LNCaP. Put plainly: Cytotoxicity against human LNCAP cells after 72 hrs by SRB assay. Format: functional, cell-based.
Another data set has as its system Lu1. Put plainly: Cytotoxicity against human Lu1 cells after 72 hrs by SRB assay. Particulars: Lu1, 72 h. In kind it is functional, cell-based.
A short description of data set [17]: Cytotoxicity against human KBV1 cells after 72 hrs by SRB assay. In kind it is functional, cell-based. Particulars: KB-V1, 72 h.
In data set [18] the test system is KB. The data set is described as follows: Cytotoxicity against human KB cells after 72 hrs by SRB assay. Format: functional, cell-based.
For the next data set, the system named is Col2. The data set is described as follows: Cytotoxicity against human Col2 cells after 72 hrs by SRB assay. Format: functional, cell-based. The following applies: Col2, 72 h.
The test system of data set [19] is SW626. The data set is described as follows: Cytotoxicity against human SW626 cells after 72 hrs by SRB assay. Format: functional, cell-based. Particulars: SW626, 72 h.
For data set [20], the system named is KB. Put plainly: Growth inhibition of human KB cells implanted intraperitoneally to NCr nu/nu mouse at 4.39 to 35.1 umol/kg, ip administered from day 3 to 6 after implantation measured on day 7 by MTT-based hollow-fiber test. In kind it is functional.
A short description of data set [21]: Growth inhibition of human KBV1 cells implanted intraperitoneally to NCr nu/nu mouse at 4.39 to 35.1 umol/kg, ip administered from day 3 to 6 after implantation measured on day 7 by MTT-based hollow-fiber test. In kind it is functional, KB-V1.
Data set [22] deals with SW626. Put plainly: Growth inhibition of human SW626 cells implanted intraperitoneally to NCr nu/nu mouse at 128 to 512 umol/kg, ip administered from day 3 to 6 after implantation measured on day 7 by MTT-based hollow-fiber test. In kind it is functional.
Data set [23] has as its system SW626. Put plainly: Growth inhibition of human SW626 cells implanted subcutaneously to NCr nu/nu mouse at 128 to 512 umol/kg, ip administered from day 3 to 6 after implantation measured on day 7 by MTT-based hollow-fiber test. Format: functional.
The subject of data set [24] is Mus musculus. Put plainly: Toxicity in NCr nu/nu mouse subcutaneously implanted with human SW626 cells assessed as body weight change at 128 to 512 umol/kg, ip administered from day 3 to 6 after implantation measured on day 7. In kind it is organism-based. Particulars: in vivo.
For another data set, the system named is MCF7. The data set is described as follows: Cytotoxicity against human MCF7 cells after 72 hrs by SRB assay. Particulars: MCF7, 72 h.
Data set [25] is described as follows: Cytotoxicity against human BC1 cells after 72 hrs by SRB assay. The following applies: BC1, 72 h.

Structures are written as SMILES. Activity calls are given as the source filed them. No cut-off for these calls is given here.

As for `CC(=O)O[C@H]1C(=O)[C@@]2(C)[C@H]([C@H](OC(=O)c3ccccc3)[C@]3(O)C[C@H](OC(=O)[C@H](O)[C@@H](NC(=O)c4ccccc4)c4ccccc4)C(C)=C1C3(C)C)[C@]1(OC(C)=O)CO[C@@H]1C[C@@H]2O` [PACLITAXEL], the Activity with Mus musculus [1] is on record as 1.7 g; with Mus musculus [2], 1.4 g; with Mus musculus [3], 1.8 g; in the data set with Mus musculus [4], 1.1 g; in the data set on Mus musculus [5], “Non-toxic”; with Mus musculus [6], “Non-toxic”. Besides, the Activity entry in the data set with Mus musculus [7] is “Non-toxic”; in the data set on Mus musculus [8] it was 9.4%; with Mus musculus [9], 6.7%; with Mus musculus [10], 8.2%; with Mus musculus [11] it was 7.8%. In addition, the “inhibition (INH)” value in the data set with SW626 [12] is on record as 98.7%; with KB [13], 19.5%; in data set [14], 13.1%; with SW626 [15], 0%; in the data set with KB [20], 70.2%; in [21], 0%. Besides, in the data set on KB [16], the outcome was inactive. Also, the IC50 in the data set with SK-MEL-2 is 0.07 µM; in the data set with P388 it was 0.02 µM; with LNCaP it was 0.02 µM; in the data set on Lu1, 0.01 µM; in [17], more than 2.3 µM; with KB [18] it was 0.02 µM. Also, the IC50 came to 0.02 µM in the data set with Col2 and 1e-05 µM in the data set with SW626 [19].
`CC1(C)CCC2=C(O1)C(=O)c1ccccc1C2=O` [ALPHA-LAPACHONE]: the “inhibition (INH)” value in the data set with SW626 [22] is on record as 0%; with SW626 [23] it was 10.3%. For the same compound, the Activity in the data set on Mus musculus [24] was 0.3 g. In addition, the half-inhibitory concentration (IC50) in the data set on SK-MEL-2 came out at 7.9 µM; in the data set with P388, 0.8 µM; in the data set on MCF7, 38 µM; in the data set with LNCaP, 29.3 µM; with Lu1 it was 21.9 µM; in [17], 34.3 µM. In addition, the 50% inhibitory concentration (IC50) in the data set with KB [18] came to 53.7 µM; with Col2, 40.9 µM; in [25], 27.7 µM; with SW626 [19], 12.4 µM.

For the origin of these results see ChEMBL document CHEMBL1150587, “Evaluation of the potential cancer chemotherapeutic efficacy of natural product isolates employing in vivo hollow fiber tests” (J Nat Prod, 2002).
